Source: patent US12344584B2, “KCNQ potentiators” (Eli Lilly and Company, priority 2019, dated 2025)
Like-named read-outs stand apart in the source and are kept apart here.

Experiments:
[1] = biological target: T1, hKv7.2 and hKv7.3 (Kv7.2/7.3) (Homo sapiens, UniProt O43525+O43526); assay: Modulation of Kv7.2/7.3 conductance, automated electrophysiology (IonWorks Barracuda, population patch clamp) in HEK293 cells; assay type: cell-based; design: Voltage Shift ([…]V0.5), Mean: unit not given here; details: for Maximal Shift (efficacy) / Slope / EC50: 4-parameter logistic fit of voltage shift data; for EC50: read-out: EC50 (potency of V0.5 shift)
T1 construct: host or cells: HEK293
Experimental: Modulation of Kv7.2/7.3 Conductance by Kv7 Potentiators in a Mammalian Expression System
The potency and efficacy of Kv7 potentiators is assessed by automated electrophysiology on the IonWorks Barracuda (Molecular Devices) platform using the population patch clamp mode of the instrument.
Cell Culture: HEK293 cells stably expressing hKv7.2 (under tetracycline induction) and hKv7.3 (Catalog #CT6147, Charles River) are used for these studies. Cells are maintained in a Dulbecco's modified Eagle's medium/nutrient mixture Ham's F-12 (Sigma-Aldrich) supplemented with 5% tetracycline-screened fetal bovine serum (Sigma-Aldrich), 15 mM HEPES, 500 μg/mL G418, 100 U/mL penicillin, 100 μg/mL streptomycin, […] L-glutamine, 100 μg/mL zeocin, and 5 μg/mL blasticidin. Expression of hKv7.2 is induced by addition of 1 μg/mL doxycycline 24 h prior to recordings.
Cells are cultured in Corning T-150 flasks to a confluence of 85%-95%. At the start of an experiment, cells are washed once with D-PBS without calcium and magnesium and then dissociated by incubating in 3 ml of 0.25% trypsin for 8 min at 37° C. Cells ware resuspended in media, triturated gently, and centrifuged for 4 min at 1,000 rpm. Cells are resuspended in external solution to a final concentration of 2.5-3.5M cells/mL.
Solutions: External solution w is composed of (in mM): 140 NaCl, 5 KCl, 2 CaCl2, 1 MgCl2, 10 HEPES, 10 Glucose, pH 7.4. Internal solution is composed of (in mM): 90 K-gluconate, 40 KCl, 3.2 EGTA, 3.2 MgCl2, 5 HEPES, pH 7.25. The membrane perforating agent amphotericin B is prepared daily as a 27 mg/mL stock solution in DMSO and then added to the internal solution to a final concentration of 0.1 mg/mL. Test article dilutions are prepared in 384-well plates from 10 mM DMSO stock solutions and diluted using acoustic dispensing (Labcyte ECHO®), such that final DMSO concentrations are 0.1%.
Electrophysiological Recordings: Resuspended cells are placed on the IONWORKS® BARRACUDA™ (IWB) instrument, external solution is added to a 384-well patch plate, and a hole test is performed to determine blocked wells and offset voltages. Cells are then added to the patch plate (9 μL per well) by the instrument. Two seal tests are performed prior to introducing the perforating agent amphotericin in the internal solution and allowing approximately 8 min to obtain electrical access, which is verified by a third seal test. The command voltage protocol consists of a family of 1 sec voltages steps from −80 mV to +40 mV from a holding potential of −80 mV and is applied prior to (baseline) and 6 min after test article addition.
Data Analysis: Data are acquired and leak subtracted using IWB software. Current amplitudes during the last 10 msec of each voltage step are averaged and exported. Further analysis is performed using Microsoft Excel and GraphPad Prism. Current amplitude is converted to conductance (G) by the following formula: G=I/(V−Ek) where I=current, V=step potential, Ek=potassium reversal potential (−84 mV). Conductance in the presence of test article is normalized to the baseline conductance at +40 mV for the same well. Conductance-voltage (G−V) curves are fitted with the Boltzmann equation y=Bottom+(Top−Bottom)/(1+EXP((Vm−V0.5/k)).
Fitting a 4-parameter logistic equation to the data may be used to determine the potency (EC50) and efficacy (maximal shift) for each test compound.

[2] = tested on: motor neurons derived from ALS patient iPSC line with pathogenic mutation in TARDBP; assay: Optopatch excitability assay in motor neurons derived from ALS patient iPSC line (TARDBP mutation); assay type: cell-based, human; details: Homo sapiens, iPSC, TARDBP line, blue LED 5.1 mW/cm^2, mean, read-out: EC50, inhibition of excitability (action potential frequency)
Description: (§1) Optopatch Excitability Assay for Example 1 in Motor Neurons Derived From ALS Patient iPSC Lines
(§2) Altered excitability of cortical neurons and lower motor neuron is an important factor in the pathophysiology of ALS (See, for example, K. Kanai, et. al., J Neurol Neurosurg Psychiatry, 83, 734-738 (2012); P. Menon, et. al., Eur Neurol., 24, 816-824 (2017)). All-optical electrophysiology (“Optopatch”) was used to evaluate excitability in cultured motor neurons derived from iPSC lines from two ALS patients with different pathogenic mutations.
(§3) Cell Culture: The two iPSC lines are derived from one patient with a pathogenic mutation in TARDBP and one patient with a pathogenic repeat expansion mutation in C9orf72, respectively. Motor neurons are generated from these lines by a 2D differentiation method adapted from the dual SMAD inhibition neuronal patterning protocol (See S. M. Chambers, et. al., Nat Biotechnol., 27, 275-280 (2009)) by inclusion of motor neuron morphogens. Differentiation is verified by visual inspection, karyotyping and staining for beta-III-tubulin and the nuclear motor neuron marker ISL1. Neurons are cultured on a monolayer of mouse glia in mTeSR (Stem Cell Technologies), supplemented with 10 ng/mL BDNF. Forty-eight hours prior to imaging, 100 nM trans-retinal was added to the medium.
(§4) Transduction with Optopatch vectors: At 15 days in vitro, cultured motor neurons are transduced with a lentiviral vector to drive the co-expression of the actuator CheRiff-mOrange2 and the voltage indicator QuasAr3-Citrine (for details see D. R. Hochbaum, et. al., Nat. Methods, 11, 825-833 (2014)). Forty-eight hours prior to imaging, 100 nM trans-retinal was added to the medium.
Solutions: Recordings are performed in Brainphys™ imaging buffer with 3 mM potassium. The gap junction blocker 2-aminoethoxydiphenyl borate (50 μM) is added to eliminate electrical coupling between cells, and NBQX (10 μM), gabazine (20 μM), and AP5 (25 μM) were used to block synaptic transmission.
Optopatch Recordings: Five days after transduction, Optopatch imaging is performed on a custom, ultra-widefield fluorescence microscope at RT. Motor neurons are illuminated with red laser excitation (200 W/cm^2; 635 nm) to monitor changes in QuasAr fluorescence and blue LED excitation (0-127 mW/cm^2, 470 nm) to depolarize the cell membrane with CheRiff. A custom blue light stimulus protocol is used consisting of: i) 2 sec of red illumination only to monitor spontaneous activity, ii) 5×500 msec steps of increasing blue light intensity and iii) 2×2 sec linearly increasing blue light ramps, each with a different maximum blue intensity. Optopatch data are recorded using a Hamamatsu ORCA-Flash 4.0 sCMOS camera with a 1 kHz frame rate. The field of view size is 4 mm×0.5 mm. Custom control software written in MATLAB is used to control illumination protocols and record all movies. To examine acute effects of Kv7.2/7.3 potentiators, neurons are incubated with test compound for 15 min prior to imaging.
(§5) Data Analysis: Image segmentation analysis is performed using temporal Principle Component Analysis and spatial-temporal Independent Component Analysis to isolate individual neurons. A spike-finding algorithm is used to find action potentials, and data are analyzed for compound effects on mean firing rate, adaptation, rheobase and action potential waveform shape by comparing to vehicle controls (for detail, see C. A. Werley, et. al., Curr. Protoc. Pharmacol., 78, 11.20.1-11.20.24. (2017)).
Subjected to the protocol described above, the primary effect of the Example 1 is on the action potential firing rate in response to low intensity blue light illumination.
Fitting a 4-parameter logistic equation to the data may be used to determine the potency (EC50) of the effect of Example 1 on action potential frequency. Results are shown in Table 1 for two separate differentiation efforts each for the lines derived from the patients carrying the TARDBP and C9orf72 mutations.

[3] = tested on: motor neurons derived from ALS patient iPSC line with pathogenic repeat expansion mutation in C9orf72; assay: Optopatch excitability assay in motor neurons derived from ALS patient iPSC line (C9orf72 repeat expansion); assay type: cell-based; details: Homo sapiens, read-out: EC50, inhibition of excitability (action potential frequency)
Description: as §1, §2, §3, §4
Solutions: Recordings are performed in Brainphys™ imaging buffer with 3 mM potassium. […]
Optopatch Recordings: Five days after transduction, Optopatch imaging is performed on a custom, ultra-widefield fluorescence microscope at RT. Motor neurons are illuminated with red laser excitation (200 W/cm^2; 635 nm) to monitor changes in QuasAr fluorescence and blue LED excitation (0-127 mW/cm^2, 470 nm) to depolarize the cell membrane with CheRiff. […] Optopatch data are recorded using a Hamamatsu ORCA-Flash 4.0 sCMOS camera with a 1 kHz frame rate. […]
as §5, with “(2017)). […]” for “(2017)).”

[4] = tested on: peripheral axons; assay: Threshold tracking of peripheral nerve excitability in anesthetized rats; assay type: in vivo; details: rat, dosed 45 min after Example 1 at 30 mg/kg
Experimental: Threshold Tracking to Measure the Effects of Example 1 at 3.10 and 30 mg/kg IP on Peripheral Nerve Excitability
Threshold tracking is a non-invasive technique that allows measurement of the excitability properties of peripheral axons by providing information about their membrane potential and ion channel function.
16 male Wistar rats from Charles River, weighing between 307-446 g ware used. Animals are group housed with standard housing conditions (4 per cage, 07:00 h to 19:00 h light phase, constant temperature (21° C.) and humidity, and free access to food and water, as well as environmental enrichment).
Rats are anesthetized with isoflurane (2-2.5%, O2 at 0.5 L/min) and then placed on their back on a heating pad to keep the tail temperature above 32° C. The placement of the ring electrodes are marked out and the marked sections of the tail are scraped with a blade to remove hair and the top layer of skin. The sites are cleaned with water and dried, allowing fora good conduction between the skin and the sticky electrodes.
A sticky ring stimulating electrode (+ve anode) is wrapped around the foot. A second sticky ring stimulating electrode (−ve cathode) is wrapped 1.5 cm from the base of the tail. A needle recording electrode is placed just off center on the top of the tail, 6 cm distal to the stimulating cathode at the base of the tail. A needle reference electrode is placed just off center on the top of the tail, 2 cm distal to the recording electrode. A sticky ground electrode is wrapped around the tail 2 cm proximal from the recording electrode.
• Start the Multitrack program (description below) and Spike. • Record 15 min of stable baseline • After the 15 min, dose with Example 1 or HEC • Take blood spot for PK at the following: • 10 min post dose • 20 min post dose • 30 min post dose • 40 min post dose • 45 min after IP (intraperitoneal) dosing with Example 1, dose XE-991 (XE-991 is a commercially available compound that blocks KCNQ potentiator effects in a formalin assay in vivo—see Y. Zheng, et al., “Activation of peripheral KCNQ channels relieves gout pain,” Pain, 156 (2015) 1025-1035; and R. Zaczek, et al., “Two New Potent Neurotransmitter Release Enhancers, 10,10-Bis(4-Pyridinylmethyl)-9(10H)-Anthracenone and 10,10-Bis(2-Fluoro-4-Pyridinylmethyl)-9(10H)-Anthracenone: Comparison to Linopirdine” The Journal of Pharmacology and Experimental Therapeutics, 285:724-730, 1998. • (XE-991 is only dosed after Example 1 at 30 mg/kg) • Take blood spot for PK at the following: • 10 min post dose (55 min post Example 1 administration) • 20 min post dose (65 min post Example 1 administration) • 30 min post dose (75 min post Example 1 administration) • 40 min post dose (85 min post Example 1 administration)
In threshold tracking assay to measure the excitability properties of peripheral axons studies in rat, compound is administered by IP at 3, 10 or 30 mg/kg using 1% hydroxyethylcellulose: 0.25% polysorbate 80:0.05% antifoam:purified water (HEC) formulation. Dry blood spots (DBS) are collected around 10, 20, 30 and terminal 40 min post-dose. DBS samples are dried at RT for around 2 h. Brain samples are obtained at terminal time point and frozen until analysis. DBS samples are shipped and stored at RT.

[5] = 10 μM, difference from control in voltage at half-maximal conductance

Compound	Voltage Shift ([…]V0.5), Mean ([1]; 0.0005 μM)	Voltage Shift ([…]V0.5), Mean ([1]; 0.0015 μM)	Voltage Shift ([…]V0.5), Mean ([1]; 0.005 μM)	Voltage Shift ([…]V0.5), Mean ([1]; 0.01 μM)	Voltage Shift ([…]V0.5), Mean ([1]; 0.04 μM)	Voltage Shift ([…]V0.5), Mean ([1]; 0.12 μM)	Voltage Shift ([…]V0.5), Mean ([1]; 0.37 μM)	Voltage Shift ([…]V0.5), Mean ([1]; 1.11 μM)	Voltage Shift ([…]V0.5), Mean ([1]; 3.33 μM)	Voltage Shift ([…]V0.5), Mean [1, 5]	Maximal Shift (efficacy) [1]	Slope [1]	EC50 [1]	EC50 ([2]; Diff 1)	EC50 ([2]; Diff 2)	EC50 ([3]; Diff 1, blue LED 5.1 mW/cm^2, mean)	EC50 ([3]; Diff 2, blue LED 5.1 mW/cm^2, mean)	reversal of the Example 1 induced increase in absolute threshold [4]
O=C(NCc1ccnc(OCC(F)(F)F)c1)NCC(O)C1(C(F)(F)F)CC1 (single isomer, unassigned) [Example 2, (+)-1-[2-hydroxy-2-[1-(trifluoromethyl)cyclopropyl]ethyl]-3-[[2-(2,2,2-trifluoroethoxy)-4-pyridyl]methyl]urea and (−)1-[2-hydroxy-2-[1-(trifluoromethyl)cyclopropyl]ethyl]-3-[[2-(2,2,2-trifluoroethoxy)-4-pyridyl]methyl]urea]	6.1	4.1	5.0	4.1	7.4	2.9	−1.9	−10.6	−23.0	−25.8	−28	1.3	1100 nM					
O=C(NCCC1(C(F)(F)F)CC1)NCc1ccnc(OCC(F)(F)F)c1 [Example 3, 1-[[2-(2,2,2-trifluoroethoxy)-4-pyridyl]methyl]-3-[2-[1-(trifluoromethyl)cyclopropyl]ethyl]urea]	3.9	0.1	1.9	−1.8	−4.4	−11.0	−19.6	−21.9	−23.9	−21.9	−23	1.1	100 nM					
CCOC(=O)Nc1ccc(NCc2ccc(F)cc2)nc1N [Flupirtine, flupirtine, reference compound]														1150 nM	840 nM	1660 nM	1350 nM	
O=C1c2ccccc2C(Cc2ccncc2)(Cc2ccncc2)c2ccccc21 [XE-991, reference compound]																		able to reverse this increase
